Key:
[1] = molecular target: 5'-AMP-activated protein kinase catalytic subunit alpha-1 (Homo sapiens, UniProt Q13131); details: at 10 µM
[2] = molecular target: T1, Cyclin-dependent kinase-like 5 (Homo sapiens) (UniProt O76039); assay: Selectivity interaction (Ambit KINOMEscan and KiNATiv profiling in Jurkat cells) EUB0000090b CDKL5; assay type: cell-based; details: at 1 µM
T1 sequence (whole entry): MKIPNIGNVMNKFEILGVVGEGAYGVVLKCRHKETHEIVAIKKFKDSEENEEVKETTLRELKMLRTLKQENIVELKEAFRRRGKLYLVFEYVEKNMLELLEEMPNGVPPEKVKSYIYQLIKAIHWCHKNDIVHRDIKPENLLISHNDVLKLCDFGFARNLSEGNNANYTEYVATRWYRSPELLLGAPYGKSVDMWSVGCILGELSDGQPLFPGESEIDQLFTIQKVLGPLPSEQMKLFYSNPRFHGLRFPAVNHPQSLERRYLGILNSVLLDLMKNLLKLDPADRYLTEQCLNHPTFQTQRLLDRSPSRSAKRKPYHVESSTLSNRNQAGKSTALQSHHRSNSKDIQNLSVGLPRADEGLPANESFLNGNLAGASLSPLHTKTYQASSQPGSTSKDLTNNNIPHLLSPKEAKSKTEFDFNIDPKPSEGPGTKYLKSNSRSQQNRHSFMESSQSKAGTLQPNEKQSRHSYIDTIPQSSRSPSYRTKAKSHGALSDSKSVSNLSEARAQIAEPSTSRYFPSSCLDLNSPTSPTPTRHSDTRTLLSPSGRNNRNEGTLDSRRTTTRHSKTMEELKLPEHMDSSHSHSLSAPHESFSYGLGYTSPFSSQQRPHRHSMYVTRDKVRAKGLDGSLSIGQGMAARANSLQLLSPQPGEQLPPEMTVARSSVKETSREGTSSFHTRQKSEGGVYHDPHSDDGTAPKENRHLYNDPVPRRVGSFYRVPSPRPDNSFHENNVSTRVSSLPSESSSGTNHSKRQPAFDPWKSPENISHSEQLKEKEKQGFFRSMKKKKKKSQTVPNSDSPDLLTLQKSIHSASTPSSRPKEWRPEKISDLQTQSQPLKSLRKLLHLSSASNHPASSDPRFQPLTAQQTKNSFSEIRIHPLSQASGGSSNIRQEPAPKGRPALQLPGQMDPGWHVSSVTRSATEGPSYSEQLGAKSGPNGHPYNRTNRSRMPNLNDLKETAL

[3] = molecular target: Protein-tyrosine kinase 6 (Homo sapiens, UniProt Q13882); assay: Selectivity interaction (KinomeScan (DiscoverX)) EUB0000045b PTK6
Protein-tyrosine kinase 6, sequence (Q13882 whole entry, looked up): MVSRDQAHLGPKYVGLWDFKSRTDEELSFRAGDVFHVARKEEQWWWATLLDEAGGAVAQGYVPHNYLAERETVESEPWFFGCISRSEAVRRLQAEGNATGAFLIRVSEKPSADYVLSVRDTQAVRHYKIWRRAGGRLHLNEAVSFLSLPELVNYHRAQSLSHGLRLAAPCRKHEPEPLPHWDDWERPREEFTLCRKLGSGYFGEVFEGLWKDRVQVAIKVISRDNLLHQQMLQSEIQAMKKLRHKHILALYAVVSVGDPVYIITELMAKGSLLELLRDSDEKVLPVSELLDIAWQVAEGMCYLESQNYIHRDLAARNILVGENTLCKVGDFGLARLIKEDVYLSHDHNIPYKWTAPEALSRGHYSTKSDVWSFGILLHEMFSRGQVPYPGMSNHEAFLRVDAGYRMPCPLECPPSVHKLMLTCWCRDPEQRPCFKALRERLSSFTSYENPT

[4] = molecular target: Protein kinase C eta type (Homo sapiens) (UniProt P24723); assay: Selectivity interaction (KinomeScan (DiscoverX)) EUB0000045b PRKCH
Protein kinase C eta type (Homo sapiens), sequence (P24723 whole entry): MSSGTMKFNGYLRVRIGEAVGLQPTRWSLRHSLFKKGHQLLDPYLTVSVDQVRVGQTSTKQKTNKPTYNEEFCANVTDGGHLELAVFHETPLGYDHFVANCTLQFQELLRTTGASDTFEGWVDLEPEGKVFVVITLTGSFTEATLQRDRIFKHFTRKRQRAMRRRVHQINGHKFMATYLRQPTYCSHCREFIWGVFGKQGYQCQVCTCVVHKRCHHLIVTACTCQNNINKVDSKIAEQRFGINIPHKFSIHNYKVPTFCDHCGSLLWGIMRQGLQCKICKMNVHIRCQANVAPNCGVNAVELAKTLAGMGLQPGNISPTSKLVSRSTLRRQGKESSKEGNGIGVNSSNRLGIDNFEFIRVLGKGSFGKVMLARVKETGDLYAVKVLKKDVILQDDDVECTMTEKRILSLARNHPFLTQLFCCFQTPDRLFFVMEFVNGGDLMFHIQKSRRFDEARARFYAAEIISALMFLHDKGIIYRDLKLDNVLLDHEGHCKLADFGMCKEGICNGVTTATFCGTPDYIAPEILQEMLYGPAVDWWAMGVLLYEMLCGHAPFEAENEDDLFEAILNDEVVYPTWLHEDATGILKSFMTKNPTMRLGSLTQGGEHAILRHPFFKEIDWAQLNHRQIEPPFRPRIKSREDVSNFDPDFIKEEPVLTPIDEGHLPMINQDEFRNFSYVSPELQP

[5] = molecular target: Epidermal growth factor receptor (Homo sapiens, UniProt P00533); details: at 10 µM
Epidermal growth factor receptor, sequence (P00533 whole entry, the tested form may be a part): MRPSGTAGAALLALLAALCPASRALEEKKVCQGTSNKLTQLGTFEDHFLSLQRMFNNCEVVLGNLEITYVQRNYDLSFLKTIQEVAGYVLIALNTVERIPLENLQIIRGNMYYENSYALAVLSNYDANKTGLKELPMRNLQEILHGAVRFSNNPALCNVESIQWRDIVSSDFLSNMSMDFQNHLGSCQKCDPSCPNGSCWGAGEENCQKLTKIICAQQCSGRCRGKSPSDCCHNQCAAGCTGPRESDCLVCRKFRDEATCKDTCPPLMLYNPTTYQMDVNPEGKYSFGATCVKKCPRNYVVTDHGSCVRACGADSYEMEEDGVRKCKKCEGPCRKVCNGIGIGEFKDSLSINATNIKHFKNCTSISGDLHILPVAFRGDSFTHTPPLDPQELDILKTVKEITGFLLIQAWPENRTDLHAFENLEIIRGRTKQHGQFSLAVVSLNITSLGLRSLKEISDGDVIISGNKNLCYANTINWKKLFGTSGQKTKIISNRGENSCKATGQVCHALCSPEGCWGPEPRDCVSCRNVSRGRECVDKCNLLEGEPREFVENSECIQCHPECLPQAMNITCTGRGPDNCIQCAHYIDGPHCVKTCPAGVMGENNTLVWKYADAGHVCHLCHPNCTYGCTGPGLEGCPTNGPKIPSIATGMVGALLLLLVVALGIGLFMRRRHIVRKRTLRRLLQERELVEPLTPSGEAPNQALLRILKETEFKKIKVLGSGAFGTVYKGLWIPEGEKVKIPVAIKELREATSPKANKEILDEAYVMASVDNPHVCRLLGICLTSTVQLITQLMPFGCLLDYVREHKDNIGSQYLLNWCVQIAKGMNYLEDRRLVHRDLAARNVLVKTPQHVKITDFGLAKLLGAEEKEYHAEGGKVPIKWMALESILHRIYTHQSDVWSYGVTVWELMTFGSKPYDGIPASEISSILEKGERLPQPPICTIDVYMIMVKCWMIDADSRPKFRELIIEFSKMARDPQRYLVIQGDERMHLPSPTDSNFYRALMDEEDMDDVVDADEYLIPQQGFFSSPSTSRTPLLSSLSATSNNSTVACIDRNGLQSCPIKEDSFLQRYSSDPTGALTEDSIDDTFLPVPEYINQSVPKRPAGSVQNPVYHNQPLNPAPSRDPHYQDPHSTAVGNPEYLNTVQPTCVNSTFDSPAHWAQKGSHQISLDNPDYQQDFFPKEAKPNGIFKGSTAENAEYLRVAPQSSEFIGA

[6] = molecular target: LIM domain kinase 1 (Homo sapiens) (UniProt P53667); assay: Selectivity interaction (KinomeScan (DiscoverX)) EUB0000655a LIMK1; details: at 10 µM
LIM domain kinase 1 (Homo sapiens), sequence (P53667 whole entry, looked up, the tested form may be a part): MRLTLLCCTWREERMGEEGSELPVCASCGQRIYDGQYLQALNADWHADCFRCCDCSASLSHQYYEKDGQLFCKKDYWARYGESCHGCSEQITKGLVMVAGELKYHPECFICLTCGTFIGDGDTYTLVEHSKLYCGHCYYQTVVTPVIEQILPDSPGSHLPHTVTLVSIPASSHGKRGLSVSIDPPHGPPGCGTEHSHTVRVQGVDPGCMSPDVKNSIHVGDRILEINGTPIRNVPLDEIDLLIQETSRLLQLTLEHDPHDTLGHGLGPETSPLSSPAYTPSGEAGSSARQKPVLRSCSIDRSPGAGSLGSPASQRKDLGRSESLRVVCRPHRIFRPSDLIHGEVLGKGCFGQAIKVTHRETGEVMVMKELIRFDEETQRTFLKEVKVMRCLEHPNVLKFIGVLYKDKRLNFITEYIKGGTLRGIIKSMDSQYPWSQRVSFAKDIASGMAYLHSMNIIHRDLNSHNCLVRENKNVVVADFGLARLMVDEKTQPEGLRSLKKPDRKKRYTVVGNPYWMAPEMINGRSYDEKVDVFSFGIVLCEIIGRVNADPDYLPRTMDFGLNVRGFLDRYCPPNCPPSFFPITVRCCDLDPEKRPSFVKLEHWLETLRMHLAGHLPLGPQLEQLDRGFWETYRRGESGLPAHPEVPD

[7] = molecular target: Serine/threonine-protein kinase PRP4 homolog (Homo sapiens) (UniProt Q13523); assay: Selectivity interaction (KinomeScan (DiscoverX)) EUB0000655a PRPF4; details: at 10 µM
Serine/threonine-protein kinase PRP4 homolog (Homo sapiens), sequence (Q13523 whole entry): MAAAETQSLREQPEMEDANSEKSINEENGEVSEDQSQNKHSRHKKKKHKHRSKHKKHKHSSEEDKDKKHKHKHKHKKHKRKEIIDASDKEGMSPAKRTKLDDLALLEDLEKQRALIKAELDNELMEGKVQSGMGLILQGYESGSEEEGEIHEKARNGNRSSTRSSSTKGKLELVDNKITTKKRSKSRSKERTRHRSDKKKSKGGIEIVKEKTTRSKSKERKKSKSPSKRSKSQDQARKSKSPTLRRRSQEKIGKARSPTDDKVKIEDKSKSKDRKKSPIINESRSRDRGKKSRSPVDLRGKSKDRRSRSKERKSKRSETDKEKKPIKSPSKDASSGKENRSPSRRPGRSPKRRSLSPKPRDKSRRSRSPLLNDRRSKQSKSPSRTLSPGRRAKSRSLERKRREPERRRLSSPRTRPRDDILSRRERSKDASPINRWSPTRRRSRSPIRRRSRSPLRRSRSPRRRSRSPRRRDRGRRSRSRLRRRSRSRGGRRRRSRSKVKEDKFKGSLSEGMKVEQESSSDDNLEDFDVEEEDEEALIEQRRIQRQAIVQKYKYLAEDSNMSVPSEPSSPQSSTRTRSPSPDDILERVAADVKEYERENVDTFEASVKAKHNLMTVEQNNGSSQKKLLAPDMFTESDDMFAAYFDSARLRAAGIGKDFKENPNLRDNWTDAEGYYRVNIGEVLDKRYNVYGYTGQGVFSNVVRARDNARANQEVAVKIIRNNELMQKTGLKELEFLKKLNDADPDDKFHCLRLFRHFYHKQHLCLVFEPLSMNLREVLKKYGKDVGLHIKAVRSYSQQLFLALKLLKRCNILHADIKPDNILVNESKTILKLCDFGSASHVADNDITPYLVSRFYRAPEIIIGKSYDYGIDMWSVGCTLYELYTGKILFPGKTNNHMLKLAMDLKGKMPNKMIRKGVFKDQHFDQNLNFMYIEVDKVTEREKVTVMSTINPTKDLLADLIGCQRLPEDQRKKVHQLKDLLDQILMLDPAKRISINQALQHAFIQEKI

[8] = molecular target: T2, Serine/threonine-protein kinase 36 (Homo sapiens) (UniProt Q9NRP7); assay: Selectivity interaction (KinomeScan (DiscoverX)) EUB0000695a STK36; details: at 100 nM
T2 sequence (whole entry): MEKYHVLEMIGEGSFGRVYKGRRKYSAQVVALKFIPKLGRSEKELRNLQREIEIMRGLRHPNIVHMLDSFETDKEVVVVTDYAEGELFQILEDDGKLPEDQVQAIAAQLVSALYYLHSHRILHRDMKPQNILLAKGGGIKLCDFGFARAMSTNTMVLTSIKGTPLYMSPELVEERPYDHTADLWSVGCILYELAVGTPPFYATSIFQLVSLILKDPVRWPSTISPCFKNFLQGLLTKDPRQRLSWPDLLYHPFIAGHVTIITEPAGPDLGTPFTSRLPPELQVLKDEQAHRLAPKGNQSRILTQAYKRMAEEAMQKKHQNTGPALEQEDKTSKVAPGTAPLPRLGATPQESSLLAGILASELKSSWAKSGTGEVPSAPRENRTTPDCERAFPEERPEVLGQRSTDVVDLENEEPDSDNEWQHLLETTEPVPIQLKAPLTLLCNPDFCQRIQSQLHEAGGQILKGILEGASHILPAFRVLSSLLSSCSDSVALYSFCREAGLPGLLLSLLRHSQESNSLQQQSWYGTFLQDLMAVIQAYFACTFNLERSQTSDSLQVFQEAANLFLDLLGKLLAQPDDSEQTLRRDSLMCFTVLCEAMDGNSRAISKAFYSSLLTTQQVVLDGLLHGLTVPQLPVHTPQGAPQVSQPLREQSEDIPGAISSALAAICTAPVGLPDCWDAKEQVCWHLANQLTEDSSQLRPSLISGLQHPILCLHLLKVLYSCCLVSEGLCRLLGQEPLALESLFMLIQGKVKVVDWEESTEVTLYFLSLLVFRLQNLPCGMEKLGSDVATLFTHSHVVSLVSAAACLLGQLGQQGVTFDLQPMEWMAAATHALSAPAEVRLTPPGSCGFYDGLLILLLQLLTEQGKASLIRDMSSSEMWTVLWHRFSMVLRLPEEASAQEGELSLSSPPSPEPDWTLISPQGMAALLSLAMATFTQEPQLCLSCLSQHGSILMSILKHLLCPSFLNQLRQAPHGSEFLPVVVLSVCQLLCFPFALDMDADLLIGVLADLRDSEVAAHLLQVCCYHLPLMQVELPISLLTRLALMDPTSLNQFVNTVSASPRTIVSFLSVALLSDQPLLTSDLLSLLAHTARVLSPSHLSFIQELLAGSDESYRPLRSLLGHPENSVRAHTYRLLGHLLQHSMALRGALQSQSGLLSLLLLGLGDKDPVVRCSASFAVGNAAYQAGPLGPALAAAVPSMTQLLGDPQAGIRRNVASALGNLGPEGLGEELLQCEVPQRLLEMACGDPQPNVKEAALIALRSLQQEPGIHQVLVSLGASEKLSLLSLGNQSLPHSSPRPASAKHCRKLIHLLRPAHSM

5'-AMP-activated protein kinase catalytic subunit alpha-1, sequence (Q13131 whole entry, looked up): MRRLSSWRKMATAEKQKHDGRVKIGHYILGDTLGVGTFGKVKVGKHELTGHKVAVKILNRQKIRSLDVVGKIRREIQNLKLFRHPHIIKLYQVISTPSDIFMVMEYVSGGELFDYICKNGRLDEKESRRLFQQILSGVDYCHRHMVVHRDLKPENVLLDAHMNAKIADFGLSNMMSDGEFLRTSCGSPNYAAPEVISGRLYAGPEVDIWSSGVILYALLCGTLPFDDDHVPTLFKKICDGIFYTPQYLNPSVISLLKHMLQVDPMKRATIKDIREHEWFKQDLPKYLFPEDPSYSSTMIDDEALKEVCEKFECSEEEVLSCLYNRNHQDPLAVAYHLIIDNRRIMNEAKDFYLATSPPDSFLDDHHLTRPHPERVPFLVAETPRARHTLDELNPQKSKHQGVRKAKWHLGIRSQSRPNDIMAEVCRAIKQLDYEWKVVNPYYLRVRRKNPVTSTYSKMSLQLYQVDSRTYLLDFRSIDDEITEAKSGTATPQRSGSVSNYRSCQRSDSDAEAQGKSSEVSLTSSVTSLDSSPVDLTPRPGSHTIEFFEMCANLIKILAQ

## CCN(CC)CCCCNc1ncc2cc(-c3cc(OC)cc(OC)c3)c(NC(=O)NC(C)(C)C)nc2n1
[1]
  % of control: 100%

## CN(C)C/C=C/C(=O)Nc1ccc(C(=O)N2CCCC(Nc3ncc(Cl)c(-c4c[nH]c5ccccc45)n3)C2)cc1 (stereo not given)
[2]
  % of control: 100%

## C=CC(=O)Nc1cc(-n2c(=O)ccc3cnc4ccc(-c5ccc(NS(C)(=O)=O)cc5)cc4c32)ccc1C
[3]; at 1 µM
  % of control: 100%
[3]; at 10 µM
  % of control: 77%
[4]; at 1 µM
  % of control: 98%
[4]; at 10 µM
  % of control: 100%

## Cc1cc([C@@H](C)Nc2ccccc2C(=O)O)c2nc(N3CCOCC3)cc(=O)n2c1 [AZD-6482]
[5]
  % of control: 96%

## CN(C)CCOc1ccc(-c2nc(-c3ccncc3)c(-c3ccc4c(c3)CC/C4=N\O)[nH]2)cc1
[6]
  % of control: 100%
[7]
  % of control: 84%

## Cc1cc(F)c(C(=O)Nc2cccc(-c3nncn3C(C)C)n2)cc1-n1cnc(C2CC2)c1
[8]
  % of control: 100%

From ChEMBL document CHEMBL5465560, “Selectivity Literature for EUbOPEN Chemogenomic Library” (2024)
